The record followed here is patent US9018208B2, “Heterocycles as potassium channel modulators” (Icagen Inc., priority 2007, dated 2015).

Molecules are shown by their SMILES. pEC50: −log10 of the molar value.

For the first assay, the system named is SH-SY5Y M-currents (KCNQ2, KCNQ3 and KCNQ5). Nature of the assay: SH-SY5Y native cell line FLIPR assay (voltage-sensitive dye DiBAC). Type of assay: cell-based, mouse neuroblastoma, rat glioma hybrid cell line. The settings on record: FLIPR assay, SH-SY5Y native cell line; Table 1; read-out: SH-SY5Y EC50. An excerpt:
SH-SY5Y cells, a mouse neuroblastoma, rat glioma hybrid cell line, functionally express M-currents (Robbins et al., J. Physiol. 451: 159-85 (1992). SH-SY5Y M-currents are likely comprised, at least in part, of KCNQ2, KCNQ3 and KCNQ5, since these genes are reportedly robustly expressed in differentiated SH-SY5Y cells (Selyanko et al., J. Neurosci. 19(18): 7742-56 (1999); Schroeder et al., J. Biol. Chem. 275(31): 24089-95 (2000)) and KCNQ3 dominant-negative constructs reduce M-current density in these cells (Selyanko et al., J. Neurosci. 22(5): RC212 (2002).
SH-SY5Y were maintained in DMEM (high glucose) supplemented with 10% fetal bovine serum, 0.05 mM pyridoxine, 0.1 mM hypoxanthine, 400 nM aminopterin, […], 50 μgml^−1 gentamycin and 10 mM HEPES, in an incubator at 37° C. with a humidified atmosphere of 5% CO2. Cells were plated in 96 well plates differentiated by addition of 10 μM PGE1 and 50 μM isomethylbutylxanthine to the growth media prior to study.
Differentiated SH-SY5Y cells were loaded with voltage-sensitive dye by incubation in Earls Balanced Salt Solution (EBSS) containing […] DiBAC for 1 h. Following loading, drug solution containing […] DiBAC was added to each well. Changes in fluorescence were measured every 30 s for 25 min. The maximum change in fluorescence was measured and expressed as a percentage of the maximum response obtained in the presence of a positive control agent.
For the compound `CC(CC(=O)Nc1nc2ccc(C(F)(F)F)cn2c1-c1nccs1)C(F)(F)F` (centres unmarked) [Compound 83, 4,4,4-trifluoro-3-methyl-N-(3-(thiazol-2-yl)-6-(trifluoromethyl)imidazo[1,2-a]pyridin-2-yl)butanamide], the pEC50 is 5.00 to 5.52.

For `O=C(Cc1ccc(F)cc1)Nc1nc2ccc(C(F)(F)F)cn2c1-c1nccs1` [Compound 84, 2-(4-fluorophenyl)-N-(3-(thiazol-2-yl)-6-(trifluoromethyl)imidazo[1,2-a]pyridin-2-yl)acetamide], the pEC50 was above 6.30. `O=C(Nc1nc2ccc(C(F)(F)F)cn2c1C1CC1)C1CC1(F)F` (centres unmarked) [Compound 85, N-(3-cyclopropyl-6-(trifluoromethyl)imidazo[1,2-a]pyridin-2-yl)-2,2-difluorocyclopropanecarboxamide]: the pEC50 was 5.52 to 6.30. On the same count and under the same terms, the result for `CC(CC(=O)Nc1nc2ccccn2c1CC(C)(C)C)C(F)(F)F` (centres unmarked) [Compound 86, 4,4,4-trifluoro-3-methyl-N-(3-neopentylimidazo[1,2-a]pyridin-2-yl)butanamide] reads 5.52 to 6.30; that for `CC(C)(C)Cc1c(NC(=O)C2CCC(F)(F)CC2)nc2ccccn12` [Compound 87, 4,4-difluoro-N-(3-neopentylimidazo[1,2-a]pyridin-2-yl)cyclohexanecarboxamide], 5.52 to 6.30; that for `CC(C)(C)CC(=O)Nc1nc2ccccn2c1CC(C)(C)C` [Compound 88, 3,3-dimethyl-N-(3-neopentylimidazo[1,2-a]pyridin-2-yl)butanamide], 5.52 to 6.30. For `C[C@@H](CC(=O)Nc1nc2ccc(C(F)(F)F)cn2c1C1CC1)C(F)(F)F` [Compound 90, (S)—N-(3-cyclopropyl-6-(trifluoromethyl)imidazo[1,2-a]pyridin-2-yl)-4,4,4-trifluoro-3-methylbutanamide], the pEC50 was 5.52 to 6.30.

Staying with this assay, now noted: FLIPR assay, SH-SY5Y native cell line; Table 2; read-out: SH-SY5Y EC50.
Consider `O=C(Nc1nc2ccc(F)cn2c1-c1ccccc1)C(F)(F)F` [Compound 91, 2,2,2-trifluoro-N-(6-fluoro-3-phenylimidazo[1,2-a]pyridin-2-yl)acetamide], for which the pEC50 was 5.00 to 5.52. Still for that read-out and setting: in the case of `O=C(Cc1ccc(F)cc1)Nc1nc2ccc(F)cn2c1-c1ccccc1` [Compound 92, N-(6-fluoro-3-phenylimidazo[1,2-a]pyridin-2-yl)-2-(4-fluorophenyl)acetamide] it was 5.52 to 6.30.

Consider `CC(C)(C)CC(=O)Nc1nc2ccc(F)cn2c1-c1ccccc1` [Compound 93, N-(6-fluoro-3-phenylimidazo[1,2-a]pyridin-2-yl)-3,3-dimethylbutanamide], for which the pEC50 is 5.52 to 6.30. The same measure, in the same setting: in the case of `O=C(CC1CCCC1)Nc1nc2ccc(F)cn2c1-c1ccccc1` [Compound 94, 2-cyclopentyl-N-(6-fluoro-3-phenylimidazo[1,2-a]pyridin-2-yl)acetamide] it was above 6.30. On the same count and under the same terms, the result for `O=C(CC(F)(F)F)Nc1nc2ccc(F)cn2c1-c1ccccc1` [Compound 95, 3,3,3-trifluoro-N-(6-fluoro-3-phenylimidazo[1,2-a]pyridin-2-yl)propanamide] reads 5.00 to 5.52; that for `O=C(Cc1ccccc1)Nc1nc2ccc(F)cn2c1-c1ccccc1` [Compound 96, N-(6-fluoro-3-phenylimidazo[1,2-a]pyridin-2-yl)-2-phenylacetamide], 5.52 to 6.30. Still for that read-out and setting: the result for `O=C(CCC(F)(F)F)Nc1nc2ccc(F)cn2c1-c1ccccc1` [Compound 97, 4,4,4-trifluoro-N-(6-fluoro-3-phenylimidazo[1,2-a]pyridin-2-yl)butanamide] reads 5.52 to 6.30; that for `O=C(CC1CCCC1)Nc1nc2cc(C(F)(F)F)ccn2c1-c1ccccc1` [Compound 98, 2-cyclopentyl-N-(3-phenyl-7-(trifluoromethyl)imidazo[1,2-a]pyridin-2-yl)acetamide], 5.52 to 6.30; that for `O=C(Cc1ccc(F)cc1)Nc1nc2cc(C(F)(F)F)ccn2c1-c1ccccc1` [Compound 99, 2-(4-fluorophenyl)-N-(3-phenyl-7-(trifluoromethyl)imidazo[1,2-a]pyridin-2-yl)acetamide], above 6.30.

The same assay, now with this note: read-out: SH-SY5Y_EC50.
With `O=C(Cc1ccc(F)cc1)Nc1nc2ccc(F)cn2c1-c1ccccc1` [Compound 92, N-(6-fluoro-3-phenylimidazo[1,2-a]pyridin-2-yl)-2-(4-fluorophenyl)acetamide], the pEC50 is 6.14.
